# Measurements: ChEMBL document CHEMBL4602609, “Virtual screening to identify potent sepiapterin reductase inhibitors” (Bioorg Med Chem Lett, 2020)
# Target: Sepiapterin reductase (Homo sapiens, UniProt P35270)
# Test: Inhibition of sepiapterin reductase (unknown origin)
# Settings: not given
# Sepiapterin reductase, sequence (P35270 whole entry): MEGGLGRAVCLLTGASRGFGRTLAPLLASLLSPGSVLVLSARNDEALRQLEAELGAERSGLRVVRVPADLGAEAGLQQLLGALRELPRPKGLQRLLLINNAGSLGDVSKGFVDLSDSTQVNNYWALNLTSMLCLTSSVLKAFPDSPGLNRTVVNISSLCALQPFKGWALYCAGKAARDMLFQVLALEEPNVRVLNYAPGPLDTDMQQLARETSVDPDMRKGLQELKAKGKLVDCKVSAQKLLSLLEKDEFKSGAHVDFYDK
row,Compound,pIC50
1,CCOC(=O)C1=C(O)C2(CCC(=CC(=O)OC)CC2)c2ccc(Cl)cc2C1=O (stereo not given),5.39

# Same assay, conditions: read-out: IC50
row,Compound,IC50
1,Cc1nn(CCO)c2ncc(C(=O)c3cc(F)ccc3O)cc12,50 nM
2,COc1ccc(O)c(C(=O)c2cnc3c(c2)c(C)nn3-c2cccc(Cl)c2)c1,> 19000 nM
3,Cc1ccc(O)c(C(=O)c2cnc3c(c2)c(C)nn3-c2ccc(F)cc2)c1,> 19000 nM
4,Cc1nn(-c2ccccn2)c2ncc(C(=O)O)cc12,> 19000 nM
5,Cc1nn(-c2ccc(F)cc2)c2ncc(C(=O)c3ccccc3O)cc12,820 nM
6,Cc1nn(-c2ncccn2)c2ncc(C(=O)c3ccccc3O)cc12,140 nM
7,Cc1nn(C2CCCS2(=O)=O)c2ncc(C(=O)c3cc(F)ccc3O)cc12 (stereo not given),20 nM
8,Cc1nn(-c2ccccc2)c2ncc(C(=O)c3ccccc3O)cc12,860 nM
9,COc1ccc(O)c(C(=O)c2cnc3c(c2)c(C)nn3-c2cccc(C)c2)c1,> 19000 nM
10,Cc1nn(C2CCOCC2)c2ncc(C(=O)c3ccccc3O)cc12,20 nM
11,Cc1nn(-c2ccccn2)c2ncc(C(=O)c3ccccc3O)cc12,180 nM
12,Cc1nn(-c2ccccn2)c2ncc(C(=O)c3cc(Cl)ccc3O)cc12,80 nM
13,Cc1nn(-c2ccncn2)c2ncc(C(=O)c3ccccc3O)cc12,140 nM
14,Cc1nn(-c2ccccc2F)c2ncc(C(=O)c3ccccc3O)cc12,50 nM
15,Cc1nn(-c2ccccn2)c2ncc(C(=O)c3cc(F)ccc3O)cc12,40 nM
16,Cc1cccc(-n2nc(C)c3cc(C(=O)c4ccccc4O)cnc32)c1,1360 nM
17,Cc1ccc(O)c(C(=O)c2cnc3c(c2)c(C)nn3C)c1,970 nM
18,Cc1ccc(O)c(C(=O)c2cnc3c(c2)c(C)nn3-c2ccccc2)c1,> 19000 nM
19,Cc1nn(C)c2ncc(C(=O)c3cc(F)ccc3O)cc12,40 nM

# Results, then the molecule that gave them:
row,IC50,Compound
1,80 nM,Cc1nn(C)c2ncc(C(=O)c3ccccc3O)cc12
2,50 nM,Cc1n[nH]c2ncc(C(=O)c3cc(F)ccc3O)cc12
3,2500 nM,COc1ccc(O)c(C(=O)c2cnc3c(c2)c(C)nn3C)c1
4,30 nM,Cc1nn(C2CCOC2)c2ncc(C(=O)c3ccccc3O)cc12 (stereo not given)
5,1720 nM,Cc1ccc(O)c(C(=O)c2cnc3c(c2)c(C)nn3-c2ccccn2)c1
6,> 19000 nM,Cc1nn(-c2ccccn2)c2ncc(C(=O)N(C)C)cc12
7,> 19000 nM,Cc1ccc(-n2nc(C)c3cc(C(=O)c4cc(C)ccc4O)cnc32)cc1
8,17000 nM,COc1ccc(O)c(C(=O)c2cnc3c(c2)c(C)nn3-c2ccccc2)c1
9,180 nM,Cc1nn(-c2ccccc2)c2ncc(C(=O)c3cc(F)ccc3O)cc12
10,40 nM,Cc1nn(CCO)c2ncc(C(=O)c3cc(Cl)ccc3O)cc12
11,50 nM,Cc1ccnc(-n2nc(C)c3cc(C(=O)c4ccccc4O)cnc32)c1

# Same assay, conditions: read-out: pIC50 (converted)
row,Compound,IC50
1,CCn1ncc(C(=O)c2cc(Cl)c(N(C)S(=O)(=O)N(C)C)cc2OC)c1O,57.5 nM
2,CC1(C)C(O)=C(C(N)=O)C(=O)c2cc(C(=O)NCCc3ccccc3)ccc21,3240 nM
3,O=C(Nc1cccc(C(F)(F)F)c1)N1CCC(S(=O)(=O)Nc2nccs2)CC1,9550 nM
4,FC(F)(F)Oc1cccc(-n2nnnc2N2CCN(c3ncnc4sc5c(c34)CCC5)CC2)c1,7590 nM
5,Cc1nn(-c2ccccn2)c2ncc(C(=O)c3ccccc3O)cc12,66.1 nM
6,O=S(=O)(Nc1ccccn1)c1ccc2c(c1)OCCO2,603 nM
7,CCOC(=O)CNCc1c(C(=O)CC)c2cc(OC)c(Br)cc2n1C,7940 nM

# Next, values leading:
row,IC50,Compound
1,1780 nM,COc1cc(C(F)(F)F)ccc1-c1nc(Cl)cc2cc(S(=O)(=O)Nc3nccs3)ccc12
2,1780 nM,COc1cc(C(F)(F)F)ccc1-c1nccc2cc(S(=O)(=O)Nc3ccc(F)cn3)ccc12
3,6170 nM,CC1(C)C=Cc2c(c(CCO)c3occ(-c4ccc(O)c(O)c4)c(=O)c3c2O)O1
4,3020 nM,O=C(Nc1nc2ccc(CN3CCCCC3)cc2n1[C@H]1CC[C@@H](C(=O)O)CC1)c1ccc(F)cc1
5,8130 nM,Cc1ccc(C(=O)c2ccccc2O)c(O)n1
6,9120 nM,O=C(CN(c1cccc(Cl)c1)S(=O)(=O)c1cccnc1)N[C@H]1CC[C@H](n2c(=O)[nH]c3ccccc32)CC1
7,4370 nM,Cn1nc(-c2cccnc2)c2c1NC(=O)C[C@@H]2c1ccc2cccc(O)c2n1
8,324 nM,Cc1cc(C(=O)C2C(=O)CC(C)CC2=O)c(C)c2c1S(=O)(=O)CCc1cn(C)nc1-2 (stereo not given)
9,6760 nM,CCOC(=O)c1c(C)n(C)c2cc(Nc3ccccc3)c(O)cc12
10,575 nM,O=S(=O)(Nc1nccs1)c1ccc2c(c1)OCCN2CCc1ccncc1
11,9550 nM,O=C(O)c1ccc2c(C(c3ccc(Cl)cc3Cl)c3c[nH]c4cc(C(=O)O)ccc34)c[nH]c2c1
12,2950 nM,CCCc1cc(C(=O)N2CCC(C3Nc4ccccc4S(=O)(=O)N3)CC2)[nH]n1 (stereo not given)
